Laboratory results from ChEMBL document CHEMBL5380868, “Filling a nick in NIK: Extending the half-life of a NIK inhibitor through structure-based drug design” (Bioorg Med Chem Lett, 2023).
In brackets after ≈: the same amount, converted by molar mass. Blank lines part the entries; values can stand above or below the molecule they belong to.

Key:
[1] = Plasma clearance in iv dosed C57BL/6J mouse; format: ADME, organism-based
[2] = Plasma clearance in iv dosed Sprague-Dawley rat; format: ADME, organism-based
[3] = Plasma clearance in iv dosed non-naive Beagle dog; format: ADME, organism-based, Canis lupus familiaris
[4] = Plasma clearance in iv dosed Cynomolgus monkey; format: ADME, organism-based, Macaca fascicularis; settings: in vivo
[5] = Unbound plasma clearance in iv dosed C57BL/6J mouse; format: ADME, organism-based; settings: in vivo
[6] = Unbound plasma clearance in iv dosed Sprague-Dawley rat; format: ADME, organism-based; settings: in vivo
[7] = Unbound plasma clearance in iv dosed non-naive Beagle dog; format: ADME, organism-based, Canis lupus familiaris; settings: in vivo
[8] = Unbound plasma clearance in iv dosed Cynomolgus monkey; format: ADME, organism-based, Macaca fascicularis; settings: in vivo
[9] = Volume of distribution in C57BL/6J mouse; format: ADME; settings: in vivo
[10] = Volume of distribution in Sprague-Dawley rat; format: ADME; settings: in vivo
[11] = Volume of distribution in non-naive Beagle dog; format: ADME, Canis lupus familiaris; settings: in vivo
[12] = Volume of distribution in Cynomolgus monkey; format: ADME, Macaca fascicularis; settings: in vivo
[13] = Half life in iv dosed C57BL/6J mouse; format: ADME, organism-based; settings: in vivo
[14] = Half life in iv dosed Sprague-Dawley rat; format: ADME, organism-based; settings: in vivo
[15] = Half life in iv dosed non-naive Beagle dog; format: ADME, organism-based, Canis lupus familiaris; settings: in vivo
[16] = Half life in iv dosed Cynomolgus monkey; format: ADME, organism-based, Macaca fascicularis; settings: in vivo
[17] = Oral bioavailability in Sprague-Dawley rat at 5 mg/kg; format: ADME, organism-based; settings: in vivo
[18] = Oral bioavailability in C57BL/6J mouse at 10 mg/kg; format: ADME, organism-based; settings: in vivo
[19] = Oral bioavailability in non-naive Beagle dog at 1 mg/kg; format: ADME, organism-based, Canis lupus familiaris; settings: in vivo
[20] = Oral bioavailability in Cynomolgus monkey at 1 mg/kg; format: ADME, organism-based, Macaca fascicularis; settings: in vivo
[21] = Lipophilicity, logD of the compound at pH 7.4 by shake flask method based LC-MS analysis; format: physicochemical; settings: buffer
[22] = Kinetic solubility of compound in PBS at pH 7.4; format: physicochemical; settings: read-out: Kinetic_solubility
[23] = target: T1, Mitogen-activated protein kinase kinase kinase 14 (Homo sapiens, UniProt Q99558); assay: Inhibition of NIK in HEK-293 cells assessed as inhibition of NIK-dependent NF-kappaB response element expression by firefly luciferase reporter gene based analysis; format: cell-based, HEK293
[24] = Inhibition of Herpes simplex virus thymidine kinase in HEK293 cells by Renilla luciferase based assay; format: cell-based; settings: Herpesviridae sp.
[25] = system: HEK293; assay: Inhibition of Herpes simplex virus thymidine kinase in HEK293 cells assessed as maximal inhibition by Renilla luciferase based assay relative to control; format: cell-based; settings: Herpesviridae sp.
[26] = target: T1, Mitogen-activated protein kinase kinase kinase 14; assay: Inhibition of NIK in HUVEC cells assessed as inhibition of anti-[…]-stimulated p52 nuclear translocation; format: cell-based
[27] = Hepatic clearance in human liver microsomes; format: ADME, Microsome
[28] = Hepatic clearance in rat liver microsomes; format: ADME, Microsome
[29] = Hepatic clearance in mouse liver microsomes; format: ADME, Microsome
[30] = Hepatic clearance in dog liver microsomes; format: ADME, Canis lupus familiaris, Microsome
[31] = Hepatic clearance in cynomolgus monkey liver microsomes; format: ADME, Macaca fascicularis, Microsome
[32] = Hepatic clearance in human hepatocytes; format: ADME, cell-based, Hepatocyte
[33] = Hepatic clearance in rat hepatocytes; format: ADME, cell-based, Hepatocyte
[34] = Hepatic clearance in mouse hepatocytes; format: ADME, cell-based, Hepatocyte
[35] = Hepatic clearance in dog hepatocytes; format: ADME, cell-based, Canis lupus familiaris, Hepatocyte
[36] = Hepatic clearance in cynomolgus monkey hepatocytes; format: ADME, cell-based, Macaca fascicularis, Hepatocyte
[37] = target: T1, Mitogen-activated protein kinase kinase kinase 14; assay: Inhibition of NIK (unknown origin) catalyzed ATP hydrolysis by fluorescence polarization method
[38] = target: Mitogen-activated protein kinase kinase kinase kinase 5 (Homo sapiens) (UniProt Q9Y4K4); assay: Inhibition of recombinant human KHS1 at 1 uM relative to control
[39] = target: Leucine-rich repeat serine/threonine-protein kinase 2 (Homo sapiens) (UniProt Q5S007); assay: Inhibition of recombinant human LRRK2 at 1 uM relative to control
[40] = target: T1, Mitogen-activated protein kinase kinase kinase 14; assay: Inhibition of NIK in human primary B cell assessed as inhibition of CD40L-stimulated nuclear translocation of p52 in cell based assay
[41] = target: Serine/threonine-protein kinase D1 (Homo sapiens) (UniProt Q15139); assay: Inhibition of recombinant human PKD1 at 1 uM relative to control
[42] = Oral bioavailability in C57BL/6J mouse at 50 mg/kg; format: ADME, organism-based; settings: in vivo
[43] = Oral bioavailability in non-naive Beagle dog at 5 mg/kg; format: ADME, organism-based, Canis lupus familiaris; settings: in vivo
[44] = Oral bioavailability in Cynomolgus monkey at 5 mg/kg; format: ADME, organism-based, Macaca fascicularis; settings: in vivo

T1 sequence (Q99558 whole entry): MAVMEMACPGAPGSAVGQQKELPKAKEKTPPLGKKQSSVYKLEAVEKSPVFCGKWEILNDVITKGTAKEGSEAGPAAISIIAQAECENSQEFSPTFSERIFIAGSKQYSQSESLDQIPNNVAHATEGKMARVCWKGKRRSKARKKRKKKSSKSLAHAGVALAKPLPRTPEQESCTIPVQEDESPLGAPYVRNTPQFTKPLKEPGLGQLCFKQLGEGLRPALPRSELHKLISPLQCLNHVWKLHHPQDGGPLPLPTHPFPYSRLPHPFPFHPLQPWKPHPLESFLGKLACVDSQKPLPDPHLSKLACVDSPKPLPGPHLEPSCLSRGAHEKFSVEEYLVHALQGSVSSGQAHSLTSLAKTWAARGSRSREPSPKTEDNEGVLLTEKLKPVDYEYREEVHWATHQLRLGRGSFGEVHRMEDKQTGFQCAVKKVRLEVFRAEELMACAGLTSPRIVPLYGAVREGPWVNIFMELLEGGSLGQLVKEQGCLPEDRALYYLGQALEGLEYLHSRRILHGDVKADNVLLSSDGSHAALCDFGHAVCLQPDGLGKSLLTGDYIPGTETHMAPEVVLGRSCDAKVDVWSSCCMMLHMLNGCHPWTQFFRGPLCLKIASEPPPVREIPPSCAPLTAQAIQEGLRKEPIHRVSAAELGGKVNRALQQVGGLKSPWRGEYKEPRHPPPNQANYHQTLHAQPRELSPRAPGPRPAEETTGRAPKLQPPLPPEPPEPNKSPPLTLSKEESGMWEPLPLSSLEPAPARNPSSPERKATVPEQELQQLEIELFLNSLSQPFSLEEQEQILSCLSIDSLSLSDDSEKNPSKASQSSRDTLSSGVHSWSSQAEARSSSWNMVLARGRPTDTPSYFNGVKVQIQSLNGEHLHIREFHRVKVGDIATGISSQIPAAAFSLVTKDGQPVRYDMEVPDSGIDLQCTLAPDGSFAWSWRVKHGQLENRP
Leucine-rich repeat serine/threonine-protein kinase 2 (Homo sapiens), sequence (Q5S007 whole entry): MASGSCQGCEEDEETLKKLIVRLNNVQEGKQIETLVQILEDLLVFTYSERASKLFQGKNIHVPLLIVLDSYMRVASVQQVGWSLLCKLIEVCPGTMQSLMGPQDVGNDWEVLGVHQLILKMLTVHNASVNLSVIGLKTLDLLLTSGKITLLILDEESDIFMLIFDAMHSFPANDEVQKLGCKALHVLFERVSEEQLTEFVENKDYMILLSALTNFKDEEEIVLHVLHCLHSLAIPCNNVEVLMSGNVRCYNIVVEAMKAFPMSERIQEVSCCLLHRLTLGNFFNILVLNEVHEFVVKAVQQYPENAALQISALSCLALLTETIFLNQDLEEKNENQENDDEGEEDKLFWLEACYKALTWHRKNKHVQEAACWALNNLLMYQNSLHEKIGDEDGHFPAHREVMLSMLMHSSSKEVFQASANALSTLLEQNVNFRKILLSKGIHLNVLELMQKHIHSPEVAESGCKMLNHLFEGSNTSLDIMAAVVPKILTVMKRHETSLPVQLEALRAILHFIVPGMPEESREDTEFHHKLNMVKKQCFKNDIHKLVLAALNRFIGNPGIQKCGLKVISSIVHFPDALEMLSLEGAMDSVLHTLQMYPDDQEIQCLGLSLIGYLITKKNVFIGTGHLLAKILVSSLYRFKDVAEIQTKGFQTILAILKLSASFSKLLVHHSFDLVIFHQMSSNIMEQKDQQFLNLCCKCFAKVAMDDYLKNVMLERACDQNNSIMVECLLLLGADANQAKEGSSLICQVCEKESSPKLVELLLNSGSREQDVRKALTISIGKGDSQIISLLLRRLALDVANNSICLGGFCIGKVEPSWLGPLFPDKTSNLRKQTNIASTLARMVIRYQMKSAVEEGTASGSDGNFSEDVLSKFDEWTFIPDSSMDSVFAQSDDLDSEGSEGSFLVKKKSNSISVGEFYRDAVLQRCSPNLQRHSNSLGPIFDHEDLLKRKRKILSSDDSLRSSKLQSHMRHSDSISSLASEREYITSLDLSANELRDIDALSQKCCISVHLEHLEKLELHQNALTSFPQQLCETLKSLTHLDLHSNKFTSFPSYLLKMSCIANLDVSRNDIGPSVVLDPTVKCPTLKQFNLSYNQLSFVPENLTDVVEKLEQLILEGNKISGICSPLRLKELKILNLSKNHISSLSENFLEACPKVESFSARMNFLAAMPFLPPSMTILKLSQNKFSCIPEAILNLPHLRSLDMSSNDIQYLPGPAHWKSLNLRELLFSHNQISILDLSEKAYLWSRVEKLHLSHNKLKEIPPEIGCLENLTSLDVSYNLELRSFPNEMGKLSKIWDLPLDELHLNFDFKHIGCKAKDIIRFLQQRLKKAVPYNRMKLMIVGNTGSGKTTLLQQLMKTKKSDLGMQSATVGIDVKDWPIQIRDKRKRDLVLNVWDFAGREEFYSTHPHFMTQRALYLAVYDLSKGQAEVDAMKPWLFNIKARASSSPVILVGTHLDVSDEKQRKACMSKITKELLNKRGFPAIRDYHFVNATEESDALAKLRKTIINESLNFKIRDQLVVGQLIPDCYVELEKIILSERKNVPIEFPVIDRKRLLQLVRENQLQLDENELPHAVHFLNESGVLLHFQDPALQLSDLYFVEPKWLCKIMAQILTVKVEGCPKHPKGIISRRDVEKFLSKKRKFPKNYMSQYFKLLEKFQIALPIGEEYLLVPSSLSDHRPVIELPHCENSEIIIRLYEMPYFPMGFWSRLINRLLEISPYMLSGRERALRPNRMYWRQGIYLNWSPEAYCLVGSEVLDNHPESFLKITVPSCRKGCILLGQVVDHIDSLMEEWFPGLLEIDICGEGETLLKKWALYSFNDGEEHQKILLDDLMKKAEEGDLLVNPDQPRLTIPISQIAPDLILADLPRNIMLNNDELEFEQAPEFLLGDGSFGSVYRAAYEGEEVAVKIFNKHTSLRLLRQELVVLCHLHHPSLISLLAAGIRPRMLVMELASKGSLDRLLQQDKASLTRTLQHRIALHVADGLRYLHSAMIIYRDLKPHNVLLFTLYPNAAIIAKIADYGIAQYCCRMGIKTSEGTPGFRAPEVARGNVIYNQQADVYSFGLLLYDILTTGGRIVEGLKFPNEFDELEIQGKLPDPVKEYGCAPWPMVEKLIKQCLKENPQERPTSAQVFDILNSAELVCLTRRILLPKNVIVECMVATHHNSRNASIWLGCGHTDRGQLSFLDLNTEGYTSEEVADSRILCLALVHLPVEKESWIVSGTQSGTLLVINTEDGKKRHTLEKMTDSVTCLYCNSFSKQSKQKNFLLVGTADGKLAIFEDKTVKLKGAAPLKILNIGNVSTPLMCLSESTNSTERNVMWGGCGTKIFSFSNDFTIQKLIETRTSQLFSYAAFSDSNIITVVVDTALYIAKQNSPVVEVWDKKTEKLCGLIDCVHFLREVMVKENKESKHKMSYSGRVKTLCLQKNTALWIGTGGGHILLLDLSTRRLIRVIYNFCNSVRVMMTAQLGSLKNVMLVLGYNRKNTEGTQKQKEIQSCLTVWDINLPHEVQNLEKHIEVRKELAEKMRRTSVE
Mitogen-activated protein kinase kinase kinase kinase 5 (Homo sapiens), sequence (Q9Y4K4 whole entry, looked up): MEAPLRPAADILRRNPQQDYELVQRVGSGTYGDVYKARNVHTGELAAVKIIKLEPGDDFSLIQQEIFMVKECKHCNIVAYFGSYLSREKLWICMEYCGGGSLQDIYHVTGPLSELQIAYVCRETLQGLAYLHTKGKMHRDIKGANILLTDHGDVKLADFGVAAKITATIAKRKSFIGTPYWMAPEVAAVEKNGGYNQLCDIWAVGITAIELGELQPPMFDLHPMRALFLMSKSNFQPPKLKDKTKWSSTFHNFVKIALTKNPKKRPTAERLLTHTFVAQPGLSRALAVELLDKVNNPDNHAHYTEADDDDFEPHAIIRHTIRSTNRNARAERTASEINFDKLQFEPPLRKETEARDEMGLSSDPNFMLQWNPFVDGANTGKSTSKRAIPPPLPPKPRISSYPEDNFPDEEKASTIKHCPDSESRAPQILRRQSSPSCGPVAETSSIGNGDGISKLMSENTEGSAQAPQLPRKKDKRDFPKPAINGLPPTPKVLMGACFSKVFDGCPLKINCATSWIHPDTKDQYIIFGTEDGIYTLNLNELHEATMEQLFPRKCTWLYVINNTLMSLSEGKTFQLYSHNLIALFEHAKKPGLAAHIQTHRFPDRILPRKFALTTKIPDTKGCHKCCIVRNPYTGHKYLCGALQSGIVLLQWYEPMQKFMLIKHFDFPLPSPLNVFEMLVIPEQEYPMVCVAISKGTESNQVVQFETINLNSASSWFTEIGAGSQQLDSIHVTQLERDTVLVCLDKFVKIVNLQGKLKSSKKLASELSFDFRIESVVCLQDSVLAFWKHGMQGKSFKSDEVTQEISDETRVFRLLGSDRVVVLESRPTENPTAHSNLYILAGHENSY

clearance [1]: 11 mL/min/kg
clearance [2]: 42 mL/min/kg
clearance [3]: 7.1 mL/min/kg
clearance [4]: 6.7 mL/min/kg
CL free [5]: 367 mL/min/kg
CL free [6]: 656 mL/min/kg
CL free [7]: 68 mL/min/kg
CL free [8]: 95 mL/min/kg
Vd [9]: 1.1 L/kg
Vd [10]: 2.6 L/kg
Vd [11]: 1.2 L/kg
Vd [12]: 2 L/kg
half-life [13]: 1.5 h
half-life [14]: 0.7 h
half-life [15]: 4.8 h
half-life [16]: 4.9 h
bioavailability [17]: > 100%
bioavailability [18]: 49%
bioavailability [19]: 78%
bioavailability [20]: 65%
logD [21]: 1.8
solubility kinetic [22]: 92 µM (≈ 35.6 µg/mL)
IC50 [23]: 53 nM
IC50 [24]: > 2000 nM
IC50 [26]: 55 nM
CLhep predicted [27]: 5.8 mL/min/kg
CLhep predicted [28]: 18 mL/min/kg
CLhep predicted [29]: 29 mL/min/kg
CLhep predicted [30]: 14 mL/min/kg
CLhep predicted [31]: 15 mL/min/kg
CLhep predicted [32]: < 6.2 mL/min/kg
CLhep predicted [33]: < 10 mL/min/kg
CLhep predicted [34]: < 21 mL/min/kg
CLhep predicted [35]: < 7.8 mL/min/kg
CLH [36]: < 8.8 mL/min/kg
IC50 [37]: 2 nM
inhibition [38]: 89%
inhibition [39]: 6%
IC50 [40]: 330 nM
inhibition [41]: 79%
Compound: CN1C(=O)[C@](O)(C#Cc2cccc(-n3nc(C(N)=O)c4cccnc43)c2)[C@H]2C[C@H]21
Imax [25]: 6%

Vd [9]: 0.5 L/kg
Vd [10]: 2.9 L/kg
Vd [11]: 0.8 L/kg
Vd [12]: 1.1 L/kg
bioavailability [42]: 72%
bioavailability [17]: 62%
bioavailability [43]: 44%
bioavailability [44]: > 100%
solubility kinetic [22]: 122 µM (≈ 45.8 µg/mL)
IC50 [24]: > 2000 nM
inhibition [39]: 59%
Compound: CN1CC[C@@](O)(C#Cc2cccc(-n3nc(C(N)=O)c4cccnc43)c2)C1=O
Imax [25]: 7%

inhibition [39]: 82%
Compound: COc1cc(C(N)=O)nc(-c2cccc(C#C[C@]3(O)CCN(C)C3=O)c2)c1
